According to paper PMC12843137, “Fine-Tuning Side Chain Substitutions: Impacts on the Lipophilicity–Solubility–Permeability Interplay in Macrocyclic Peptides” (Marine Drugs, 2025):
Read-outs that look alike come from different tables or passages of the source.

Key:
PANC-1 cells = conditions: CCK-8; cited from earlier work
PATU8988T cells = assay: CCK-8 antiproliferative assay, PATU8988T; type: cell-based; conditions: Homo sapiens, PaTu 8988t; CCK-8, 72 h, mean ± SEM (n = 3); read-out: Cell proliferation IC50 PATU8988T
Protocol: (§1) The inhibitory activities against human pancreatic cancer PANC-1 cells of the synthesized compounds were evaluated by CCK-8 assay.
(§2) Human pancreatic cancer cell lines PANC-1, PATU8988T and BxPC3 were purchased from the Cancer Institute & Hospital of the Chinese Academy of Medical Sciences (Shanghai, China). All three cell lines were cultured in RPMI-DMEM medium containing 10% fetal bovine serum, cultured at a constant temperature of 37 °C in a humidified incubator with 5% CO2.
(§3) Pancreatic cancer cells are seeded into 96-well plates. After a proliferation time of 16 h, different concentrations of compounds are added into the corresponding wells and incubated for 72 h. 10 μL of CCK-8 solution is added into each well and incubated for 1–4 h at 37 °C. Shake the plates and read the OD value of each well at 450 nm on a microplate reader.
(§4) 1. Characterization of biological activity
(§5) Supplementary Figure S1. Cell viability is assessed using the CCK -8 assay following 72 h treatment with the tested compounds in pancreatic cancer cell lines: a) PATU8988T, b) BxPC3.
(§6) Supplementary Table S1. The effects of compounds against two pancreatic cancer cell lines were evaluated using […]
(§7) Cell proliferation IC 50(µM)a
(§8) [a] IC50 va lues of the tested compounds ar e determined in PATU8988T an d BxPC3 cells. […]
(§9) Supplementary Figure S2. Convergence of the PMF calculated from WTM -eABF simulation . […]

BxPC3 cells = assay: CCK-8 antiproliferative assay, BxPC3; type: cell-based; conditions: Homo sapiens, BXPC-3, 72 h, CCK-8, 72 h, mean ± SEM (n = 3); read-out: Cell proliferation IC50 BxPC3
Protocol: as §1, §2, §3, §4, §5, §6, §7, §8, §9

recombinant human eEF1A1 = target: T1, recombinant human eEF1A1 (Homo sapiens, UniProt P68104); assay: MicroScale Thermophoresis (MST) binding assay; conditions: for Kd: MST, 50 mM HEPES pH 7.4, 0.05% Tween-20, triplicate, mean ± SD
T1 construct: purchased TMPH-01283
T1 sequence (P68104 1-462): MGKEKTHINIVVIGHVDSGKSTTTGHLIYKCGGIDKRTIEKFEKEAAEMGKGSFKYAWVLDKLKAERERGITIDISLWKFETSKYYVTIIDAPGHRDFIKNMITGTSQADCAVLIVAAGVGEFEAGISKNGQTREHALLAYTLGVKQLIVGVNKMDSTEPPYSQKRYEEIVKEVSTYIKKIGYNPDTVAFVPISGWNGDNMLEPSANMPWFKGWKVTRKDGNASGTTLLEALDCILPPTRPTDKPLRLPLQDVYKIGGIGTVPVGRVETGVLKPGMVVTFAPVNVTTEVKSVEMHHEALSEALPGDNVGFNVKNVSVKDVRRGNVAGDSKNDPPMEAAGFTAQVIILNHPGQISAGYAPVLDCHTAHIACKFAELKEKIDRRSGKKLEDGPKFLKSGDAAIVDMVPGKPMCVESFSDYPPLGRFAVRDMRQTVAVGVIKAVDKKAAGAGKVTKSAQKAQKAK
Text: To investigate whether the loss of cellular activity in the BE derivatives results from diminished binding to the known intracellular target eEF1A1, we assessed direct target engagement using MST. Recombinant human eEF1A1 protein was titrated against the compounds, which were supplied in HEPES buffer (pH 7.4) and diluted as required. Binding interactions were quantified by monitoring changes in thermophoretic mobility. Detailed materials and protein labeling procedures are provided in the Supporting Information.
Compounds were serially diluted (16-point, 2-fold) in assay buffer (50 mM HEPES, pH 7.4, 0.05% Tween-20) as ligands. Labeled eEF1A1 protein (target) was mixed 1:1 with each dilution and incubated at room temperature for 20 min. Samples were loaded into premium capillaries and analyzed on the Monolith X instrument following the manufacturer’s protocol, with infrared laser excitation at 1480 nm to generate a temperature gradient. Thermophoretic mobility was monitored via fluorescence changes before, during, and after laser activation.
Data were analyzed using NanoTemper Analysis software (version 2.3) to fit binding curves and determine dissociation constants (Kd). Experiments were performed in triplicate, and Kd values are reported as mean ± standard deviation.
The Lucifer Yellow fluorescence (to monitor monolayer integrity) signal is measured in a fluorescence plate reader at 485 nm excitation and 530 nm emission.
The leakage of Lucifer Yellow, in unit of percentage (%), can be calculated using the following equation:
%LY leakage = 100×[LY]acceptor/([LY]donor+[LY]acceptor)
Where [LY]acceptor is the fluorescence intensity in the acceptor well (0.3 mL), and [LY]donor is the fluorescence intensity in the donor well (0.1 mL) and expressed as % leakage. The percentage of Lucifer yellow leakage […]
should be less than 1.0%. […]
monolayers will be compared. […]
those in the replicate transwells (CV<30%), the monolayer's Papp data will be considered valid and […]
Supplementary Table S3. The assessment of caco-2 cell monolayer integrity. […]

| IC50 (BxPC3 cells) [µM] | Kd (recombinant human eEF1A1; read-out: Kd) [µM] | fold weaker affinity than the parent BE (recombinant human eEF1A1; ratio of MST Kd values) | Kd (recombinant human eEF1A1) | Compound | IC50 (PANC-1 cells) [µM] | IC50 (PATU8988T cells) [µM] |
| --- | --- | --- | --- | --- | --- | --- |
|  |  |  |  | CCCCCCCCCCCCCC1OC(=O)CN(C)C(=O)C=CC(CN2CCN(C)CC2)NC(=O)CNC(=O)C(C)(O)C(=O)C1C (centres unmarked) [BE-NMP] | 0.65 ± 0.19 |  |
| > 50 | 7.82 ± 0.63 | approximately 3.4 fold |  | CCCCOc1ccc(-c2ccc(-c3ccc(Cn4cc(CCCCC[C@H]5OC(=O)CN(C)C(=O)/C=C/[C@@H](CN6CCN(C)CC6)NC(=O)CNC(=O)[C@@](C)(O)C(=O)[C@H]5C)nn4)cc3)cc2)cc1 [Compound 29] |  | > 50 |
| > 100 |  |  | no detectable binding | CC1C(=O)C(C)(O)C(=O)NCC(=O)NC(CN2CCN(C)CC2)C=CC(=O)N(C)CC(=O)OC1CCCCc1cn(CCCCCCCCNC(=N)N)nn1 (centres unmarked) [Compound 31] |  | > 50 |
